Patent US12209081B2 (Katholieke Universiteit Leuven, priority 2020, dated 2025)

molecular target: mouse TRPM3α2 (mTRPM3) ion channel (Mus musculus (Mouse), UniProt J9SQF3); experiment: TRPM3 ion channel driven Ca2+ uptake, Fluo-4 AM assay, mTRPM3alpha2 overexpressing flip-in HEK293 cells stimulated with pregnenolone sulfate; format: cell-based; settings: PS (50 μM) stimulated, cpds. 608-666
In short: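 Flip-in HEK293 cells loaded with Fluo-4 AM were added to plates holding compound plus 50 μM pregnenolone sulfate in Ca2+-containing Krebs buffer. Fluorescence (ex 485/em 535 nm) read directly after cell addition; % inhibition relative to PS-stimulated vehicle and positive-control inhibitor.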

Chain of mouse TRPM3α2 (mTRPM3) ion channel (J9SQF3 other isoform, or with tags, fused parts or gaps): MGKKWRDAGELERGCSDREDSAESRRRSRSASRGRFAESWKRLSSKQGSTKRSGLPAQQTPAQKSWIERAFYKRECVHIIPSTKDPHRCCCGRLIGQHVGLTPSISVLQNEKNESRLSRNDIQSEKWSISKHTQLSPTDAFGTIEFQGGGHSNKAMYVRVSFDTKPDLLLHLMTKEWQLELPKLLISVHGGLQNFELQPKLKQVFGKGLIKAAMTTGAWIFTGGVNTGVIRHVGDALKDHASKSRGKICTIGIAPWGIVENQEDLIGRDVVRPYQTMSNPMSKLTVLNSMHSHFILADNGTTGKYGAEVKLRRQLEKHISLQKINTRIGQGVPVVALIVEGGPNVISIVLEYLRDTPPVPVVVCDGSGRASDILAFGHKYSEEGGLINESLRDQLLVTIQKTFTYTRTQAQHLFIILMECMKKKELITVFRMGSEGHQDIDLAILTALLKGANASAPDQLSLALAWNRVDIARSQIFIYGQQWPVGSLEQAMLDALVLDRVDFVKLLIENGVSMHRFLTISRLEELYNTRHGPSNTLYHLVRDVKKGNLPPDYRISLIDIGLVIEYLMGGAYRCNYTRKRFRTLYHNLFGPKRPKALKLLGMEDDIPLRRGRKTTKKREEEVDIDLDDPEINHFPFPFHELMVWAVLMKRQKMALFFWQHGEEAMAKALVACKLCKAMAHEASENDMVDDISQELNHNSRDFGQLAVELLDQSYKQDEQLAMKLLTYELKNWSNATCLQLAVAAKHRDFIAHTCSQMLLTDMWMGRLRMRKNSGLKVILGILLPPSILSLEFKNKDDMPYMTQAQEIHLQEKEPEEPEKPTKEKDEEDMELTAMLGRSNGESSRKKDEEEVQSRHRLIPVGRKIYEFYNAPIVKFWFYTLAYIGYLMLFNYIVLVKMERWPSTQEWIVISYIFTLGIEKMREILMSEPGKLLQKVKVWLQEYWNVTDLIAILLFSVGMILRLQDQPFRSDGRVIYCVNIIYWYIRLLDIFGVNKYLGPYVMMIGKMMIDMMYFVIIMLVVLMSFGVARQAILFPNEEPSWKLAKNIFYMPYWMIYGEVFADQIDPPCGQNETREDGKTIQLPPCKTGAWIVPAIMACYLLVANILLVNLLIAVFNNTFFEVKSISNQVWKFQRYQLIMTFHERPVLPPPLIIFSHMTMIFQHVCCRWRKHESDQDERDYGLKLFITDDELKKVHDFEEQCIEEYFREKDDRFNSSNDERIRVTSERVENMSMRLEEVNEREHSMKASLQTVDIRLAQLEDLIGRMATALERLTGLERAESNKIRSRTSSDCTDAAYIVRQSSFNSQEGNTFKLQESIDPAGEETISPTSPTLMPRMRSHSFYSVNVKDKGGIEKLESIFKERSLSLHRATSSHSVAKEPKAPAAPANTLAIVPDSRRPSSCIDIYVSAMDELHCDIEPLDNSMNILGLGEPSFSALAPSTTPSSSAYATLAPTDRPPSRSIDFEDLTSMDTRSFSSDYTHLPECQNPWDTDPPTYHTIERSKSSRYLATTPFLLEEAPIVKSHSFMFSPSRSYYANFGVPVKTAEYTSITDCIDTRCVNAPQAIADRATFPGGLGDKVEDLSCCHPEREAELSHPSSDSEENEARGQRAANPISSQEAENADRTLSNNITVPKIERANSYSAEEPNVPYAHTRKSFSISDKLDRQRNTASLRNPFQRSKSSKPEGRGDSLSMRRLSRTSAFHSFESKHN

Row | IC50 [nM] | Structure (SMILES)
1 | > 20000 | Cc1ncsc1COc1ccc2oc(C(N)=O)c(C(=O)NC3(CO)CCOCC3)c2c1 [compound 658, N3-(4-(hydroxymethyl)tetrahydro-2H-pyran-4-yl)-5-((4-methylthiazol-5-yl)methoxy)benzofuran-2,3-dicarboxamide]
2 | > 20000 | Cc1ncsc1COc1ccc2oc(C)c(C(=O)N(CCO)C3CCC3)c2c1 [compound 660, N-cyclobutyl-N-(2-hydroxyethyl)-2-methyl-5-((4-methylthiazol-5-yl)methoxy)benzofuran-3-carboxamide]
3 | < 1000 | Cc1oc2ccc(OCc3cccnc3)cc2c1C(=O)NC(CO)C(N)=O (centres unmarked) [compound 662, N-(1-amino-3-hydroxy-1-oxopropan-2-yl)-2-methyl-5-(pyridin-3-ylmethoxy)benzofuran-3-carboxamide]
4 | < 1000 | COc1ncccc1COc1ccc2oc(C)c(C(=O)NC3CNCC3(F)F)c2c1 (centres unmarked) [compound 663, N-(4,4-difluoropyrrolidin-3-yl)-5-((2-methoxypyridin-3-yl)methoxy)-2-methylbenzofuran-3-carboxamide]
5 | < 1000 | Cc1oc2ccc(OCc3cccnc3C(F)(F)F)cc2c1C(=O)NC1COCC1(F)F (centres unmarked) [compound 664, N-(4,4-difluorotetrahydrofuran-3-yl)-2-methyl-5-((2-(trifluoromethyl)pyridin-3-yl)methoxy)benzofuran-3-carboxamide]
6 | < 1000 | COc1ncccc1COc1ccc2oc(C)c(C(=O)NC3COCC3(F)F)c2c1 (centres unmarked) [compound 665, N-(4,4-difluorotetrahydrofuran-3-yl)-5-((2-methoxypyridin-3-yl)methoxy)-2-methylbenzofuran-3-carboxamide]
7 | < 1000 | Cc1ncsc1COc1ccc2oc(C)c(C(=O)NCC(F)(F)F)c2c1 [compound 666, 2-methyl-5-((4-methylthiazol-5-yl)methoxy)-N-(2,2,2-trifluoroethyl)benzofuran-3-carboxamide]

same assay, conditions: PS (50 μM) stimulated, cpds. 667-751

Row | Structure (SMILES) | IC50 [nM]
8 | Cc1cnn(C)c1COc1ccc2oc(C)c(C(=O)N[C@@H](CO)C(N)=O)c2c1 [compound 668, (S)-N-(1-Amino-3-hydroxy-1-oxopropan-2-yl)-5-((1,4-dimethyl-1H-pyrazol-5-yl)methoxy)-2-methylbenzofuran-3-carboxamide] | < 1000
9 | Cc1oc2ccc(OCc3c(Cl)cnn3C)cc2c1C(=O)N[C@@H](CO)C(N)=O [compound 670, (S)-N-(1-Amino-3-hydroxy-1-oxopropan-2-yl)-5-((4-chloro-1-methyl-1H-pyrazol-5-yl)methoxy) -2-methylbenzofuran-3-carboxamide] | < 1000
10 | Cc1oc2ccc(OCc3c(Cl)cnn3C(C)C)cc2c1C(=O)N[C@@H](CO)C(N)=O [compound 672, (S)-N-(1-amino-3-hydroxy-1-oxopropan-2-yl)-5-((4-chloro-1-isopropyl-1H-pyrazol-5-yl)methoxy)-2-methylbenzofuran-3-carboxamide] | < 1000
11 | Cc1nc(C)c(COc2ccc3oc(C)c(C(=O)N[C@@H](CO)C(N)=O)c3c2)o1 [compound 678, (S)-N-(1-Amino-3-hydroxy-1-oxopropan-2-yl)-5-((2. 4-dimethyloxazol-5-yl)methoxy)-2-methylbenzofuran-3-carboxamide] | < 1000
12 | Cc1oc2ccc(OCc3cnc(C(C)C)s3)cc2c1C(=O)N[C@@H](CO)C(N)=O [compound 682, (S)-N-(1-Amino-3-hydroxy-1-oxopropan-2-yl)-5-((2-isopropylthiazol-5-yl)methoxy)-2-methylbenzofuran-3-carboxamide] | < 1000

The remaining lines, values ahead:

Row | IC50 [nM] | Structure (SMILES)
13 | < 1000 | Cc1oc2ccc(OCc3ccnn3C(C)C)cc2c1C(=O)N[C@@H](CO)C(N)=O [compound 676, (S)-N-(1-amino-3-hydroxy-1-oxopropan-2-yl)-5-((1-isopropyl-1H-pyrazol-5-yl)methoxy)-2-methylbenzofuran-3-carboxamide]
14 | < 1000 | Cc1ncoc1COc1ccc2oc(C)c(C(=O)N[C@@H](CO)C(N)=O)c2c1 [compound 680, (S)-N-(1-Amino-3-hydroxy-1-oxopropan-2-yl)-2-methyl-5-((4-methyloxazol-5-yl)methoxy)benzofuran-3-carboxamide]
